{"source": "patent US9657071B2", "about": "“IgE peptide vaccine” (NIPPON ZENYAKU KOGYO CO., LTD., priority 2012, dated 2017)", "key": {"[1]": {"tested_on": "Dermatophagoides farinae antigen-specific IgE", "experiment": "Treatment experiment, artificially sensitized dogs: Dermatophagoides farinae antigen-specific IgE (ELISA)", "type": "in vivo, dog", "settings": "artificially sensitized beagles, s.c. 1 mg five times; one individual (04-95) of 4", "procedure": "Dog: 8 artificially sensitized beagles (1 to 8 years old; 4 males and 4 females) were used. The ages and numbers of these 8 dogs were as follows:\nArtificial sensitization: 400 μg of a Dermatophagoides farinae antigen (GREER) and 1 mg of an alum adjuvant (LSL) were subcutaneously administered at a 2-week interval, and IgE against the Dermatophagoides farinae antigen was confirmed by ELISA.\nGrouping: on the basis of the ELISA results of IgE, the dogs were divided into 2 groups each involving 4 individuals uniformly distributed in terms of their IgE levels and ages.\nVaccine: the M4-7-11 peptide was used alone without being conjugated.\nAdministration method: 1 mg (500 μL of 2 mg/mL) per dose was subcutaneously administered five times at 2-week intervals.\nEvaluation: serum was collected, and an IgG antibody against human IgE was assayed by ELISA. […] The IgE antibody against Dermatophagoides farinae was evaluated by ELISA.\nThe Dermatophagoides farinae antigen was prepared at 5 μg/mL in an immobilization buffer (0.05 M carbonate buffer, pH 9.6), then added at a concentration of 100 μL/well to an ELISA plate, and left overnight at 4° C. […] Then, the measurement was performed using a plate reader (Bio-Rad Laboratories, Inc.; model 680) (dual: measurement: 450 nm, control: 570 nm)."}, "[2]": {"tested_on": "anti-dog IgE monoclonal antibodies", "experiment": "Epitope analysis of synthetic IgE CH3 region peptides by ELISA", "type": "binding", "settings": "peptide immobilized 100 ng/well, ELISA with anti-IgE monoclonal antibodies", "procedure": "Epitope analysis was conducted on mouse monoclonal antibodies binding to a dog IgE antibody and rat monoclonal antibodies binding to dog and mouse IgE antibodies. Mouse anti-dog IgE antibodies (clone name: CCH3-4, CCH5-5, CCH3-12, CCH3-13, CCH3-14, and CCH3-15) were prepared from mice immunized with the dog IgE CH3 (Cε3) region gene. Also, anti-IgE monoclonal antibodies (clone name: X-1, X-2, CCH3-21, and CCH3-22) were prepared from rats immunized with the dog and mouse IgE CH3 (Cε3) region genes. These antibodies were used as samples to synthesize synthetic peptides (SEQ ID NOs: 2 to 20 and 22 to 26) of the dog and mouse IgE peptide CH3 (Cε3) regions consisting of the sequences shown in FIG. 1-1. The epitope analysis was conducted by ELISA. […] The anti-dog IgE monoclonal antibodies that responded to the peptide were detected using secondary antibodies (anti-mouse IgG HRP (horseradish peroxidase)-labeled antibody for the anti-dog IgE antibodies prepared using mice, and anti-rat IgG HRP-labeled antibody for the anti-dog IgE antibodies prepared using rats)."}, "[3]": {"tested_on": "dog IgE", "sequence (as listed by the source)": "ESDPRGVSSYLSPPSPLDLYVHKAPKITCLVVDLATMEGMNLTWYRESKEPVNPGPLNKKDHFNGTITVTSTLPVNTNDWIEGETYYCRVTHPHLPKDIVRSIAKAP", "experiment": "Reactivity of serum of peptide-immunized rabbit with dog IgE (ELISA)", "type": "in vivo", "settings": "500 μg peptide + complete adjuvant s.c.", "procedure": "(§1) 2 mL of the 250 μg/mL peptide (a total of 500 μg) used in Example 2 was mixed with an equal amount of a complete adjuvant (a total of 4 mL). Each rabbit was immunized with this mixture by the subcutaneous administration (amount of the peptide: 500 μg) at day 0 and weeks 2, 4, 6, and 8. Blood was collected 5 weeks after the week-8 administration (week 13 counted from day 0). Booster immunization was performed at week 14 counted from day 0, and blood was further collected 2 weeks thereafter (week 16 counted from day 0). Antibody titers in the collected blood were measured by ELISA. The serum of a rabbit that received no peptide was used as a control.\n(§2) ELISA was performed by the following method: each […] recombinant CH3 solution of dog IgE, human IgE, mouse IgE, dog IgG, and cat IgE was immobilized at a concentration of 100 μL/well (100 ng/well) to a plate. The serum collected from the immunized rabbit was used (×200 to ×102400) as a primary antibody. An enzyme-labeled anti-rabbit IgG antibody (Zymed Laboratories Inc.) was used as a secondary antibody."}, "[4]": {"tested_on": "dog IgG", "experiment": "Reactivity of serum of peptide-immunized rabbit with dog IgG (ELISA)", "type": "in vivo", "settings": "500 μg peptide + complete adjuvant s.c.", "procedure": "as §1, §2"}}}
{"sequence": "KKTSVSASQWYTKHHNNATT (listed as Mus musculus) [M4-7-11]", "values": [{"measurement": "serum concentration of Dermatophagoides farinae antigen-specific IgE", "setting": "[1]", "value": "reduction in the serum concentration of IgE was confirmed in one individual"}]}
{"sequence": "QEKKTSVSASQWYTKHHNNATTSIT (listed as Mus musculus) [MOUSE CH3-4-17-11]", "values": [{"measurement": "epitope in IgE CH3 region peptide", "setting": "[2]", "value": "peptide of an epitope region"}, {"measurement": "response of immobilized dog IgE to peptide-administered rabbit serum", "setting": "[3]", "value": "responded"}, {"measurement": "response of immobilized dog IgG to peptide-administered rabbit serum", "setting": "[4]", "value": "responded to neither"}]}
